According to the NIST ThermoML archive (doi:10.1021/acs.jced.6b00640):

Test: refractive index (Na D-line) (dimensionless); xn = mol fraction of the nth substance listed
Conditions: 100 kPa, Liquid, Standard Abbe refractometry

CCOC(=O)CCC(=O)OCC [diethyl butanedioate] + CCCC(=O)OCC
refractive index
Conditions | x2 = 0.0999 | x2 = 0.2 | x2 = 0.3003 | x2 = 0.3999 | x2 = 0.5 | x2 = 0.5997 | x2 = 0.7 | x2 = 0.7999 | x2 = 0.8999
288.15 K | 1.4198 | 1.4177 | 1.4154 | 1.413 | 1.4104 | 1.4076 | 1.4048 | 1.4016 | 1.3986
293.15 K | 1.4176 | 1.4155 | 1.4132 | 1.4107 | 1.4081 | 1.4053 | 1.4024 | 1.3992 | 1.3961
298.15 K | 1.4154 | 1.4132 | 1.4109 | 1.4084 | 1.4058 | 1.403 | 1.4 | 1.3968 | 1.3937
303.15 K | 1.4132 | 1.411 | 1.4086 | 1.4061 | 1.4035 | 1.4006 | 1.3976 | 1.3944 | 1.3912
308.15 K | 1.411 | 1.4088 | 1.4063 | 1.4038 | 1.4011 | 1.3982 | 1.3952 | 1.392 | 1.3888
313.15 K | 1.4088 | 1.4065 | 1.4041 | 1.4015 | 1.3988 | 1.3959 | 1.3928 | 1.3895 | 1.3862
318.15 K | 1.4066 | 1.4043 | 1.4018 | 1.3992 | 1.3964 | 1.3935 | 1.3904 | 1.387 | 1.3837
323.15 K | 1.4044 | 1.402 | 1.3995 | 1.3968 | 1.394 | 1.391 | 1.3878 | 1.3844 | 1.3809
